In patent publication US20120316137A1, “Methods and Compositions for Treating Cancer” (priority 2009, published 2012):
Where two headings read alike, the source gives them in different places.

Tests used:
[1] = test system: Ba/F3 cells expressing BCR-ABL^T315I; conditions: for Wells with outgrowth: 480 wells surveyed
Description: (§1) At confluency, cells in 24-well plates were collected by centrifugation. DNA was extracted from the cell pellets using a DNEasy Tissue kit (QIAGEN, Inc., Valencia, Calif.). The BCR-ABL kinase domain was amplified using primers B2A (5′ [sequence] 3′) and ABL4317R (5′[sequence] 3′), PCR products were bi-directionally sequenced by a commercial contractor (Agencourt Bioscience Corporation, Beverly, Mass.) using primers ABL3335F (5′[sequence] 3′) and ABL4275R (5′[sequence] 3′), and the chromatograms were analyzed for mutations using Mutation Surveyor software (SoftGenetics, State College, Pa.).

parental Ba/F3 cells = test: Cellular proliferation assay (MTS, 72 h); conditions: Mus musculus, BaF3, 72 h
Description: (§2) Prior to cell proliferation assays, RNA was isolated from each Ba/F3 cell line, and kinase domain mutations were confirmed by RT-PCR followed by DNA sequence analysis using Mutation Surveyor software (SoftGenetics, State College, Pa.).

[2] = test system: FLT3-ITD positive primary blasts; test: Ex vivo viability of primary AML cells (MTS, 72 h); conditions: Homo sapiens, read-out: IC50, viability
[3] = test system: Phospho-Erk1/2 in SNU1 cells; test: Western immunoblotting; conditions: Homo sapiens, SNU1, read-out: Phospho-Erk1/2 IC50 (nM)
Description: (§3) Cells were lysed in either SDS buffer or Phospho-Safe™ buffer (Novagen, Gibbstown, N.J.) and protein lysates were immunoprecipitated overnight and/or immunoblotted with the indicated antibodies. Protein expression was quantified using Quantity One software (BioRad, Hercules, Calif.).

[4] = test system: KG1 cells (FGFR1OP2-FGFR1); test: Cell viability assay (72 h); conditions: Homo sapiens, KG-1, 72 h, read-out: Cell viability IC50 (nM)
Description: (§4) Exponentially growing cell lines were plated into 96-well plates and incubated overnight at 37° C. […] Fluorescence was measured using a Wallac Victor microplate reader (PerkinElmer, Waltham, Mass.). […] Data are shown as mean (1 SD) from 3 separate experiments, each tested in triplicate.

[5] = test system: Kasumi-1 cells (c-KIT N822K); test: Cell viability assay (72 h); type: cell-based; conditions: Homo sapiens, Kasumi 1, 72 h, read-out: Cell viability IC50 (nM)
Description: as §4

[6] = test system: refractory hematologic malignancies (CML, Ph+ ALL); test: Phase 1 clinical trial: hematologic, cytogenetic and molecular responses; type: in vivo, human; conditions: for complete hematologic response (CHR) in CP patients: overall best response
Description: Fifty-seven patients (30 males) were enrolled and treated, median age 61 years (range 26-85) and median years from diagnosis 5.4 (0-21). Diagnoses included 50 CML (37 chronic [CP], 7 accelerated [AP], 6 blast phase [BP]), 3 Ph+ ALL, and 4 other malignancies (2 myelofibrosis, 1 myeloma, and 1 MDS).

[7] = test system: Phospho-Erk1/2 in MFE-296 cells; test: Western immunoblotting; conditions: Homo sapiens, MFE-296, read-out: Phospho-Erk1/2 IC50 (nM)
Description: (§5) Cells were lysed in either SDS buffer or Phospho-Safe (Novagen, Gibbstown, N.J.) and protein lysates were immunoprecipitated overnight and/or immunoblotted with the indicated antibodies. Protein expression was quantified using Quantity One software (BioRad, Hercules, Calif.).

[8] = test system: FGFR2-driven AN3CA endometrial tumor xenograft; test: AN3CA subcutaneous xenograft (Example 7); conditions: 30 mg/kg oral daily, 12 days
Description: (§6) AN3CA cells were implanted into the right flank of nude mice. […] Mean tumor volumes (±SE; tumor volume=L×W^2×0.5) were calculated for each treatment group.

[9] = test system: MDA-MB-453 breast cancer cells, mutant FGFR4 (Y367C); test: cells; conditions: Homo sapiens, MDA-MB-453, read-out: Cell growth GI50 (nM)
[10] = test system: Phospho-Erk1/2 in Hec1B cells; test: Western immunoblotting; conditions: Homo sapiens, HEC-1B, read-out: Phospho-Erk1/2 IC50 (nM)
Description: as §3, §5

PKC8 = test: Kinase assay (RBC); conditions: 10 μM ATP
PI3Kα = PI3Kα (Homo sapiens, UniProt P42336); test: Kinase assay (RBC)
[11] = human, in vivo
RS4;11 cells (wt) = test: Cell viability assay (72 h); conditions: Homo sapiens, RS4-11, 72 h, read-out: Cell viability IC50 (nM)
Description: as §4

[12] = test system: Ba/F3 cells expressing native BCR-ABL
Description: as §1

[13] = test system: FGFR3 signaling in OPM2 myeloma cells (K650E); test: Signaling (Western immunoblotting), Table 12; conditions: Homo sapiens, OPM-2, read-out: Signaling IC50 (nM)
Description: as §5

[14] = test system: AN3CA endometrial cancer cells with mutant FGFR2 (N549K); test: cells; conditions: Homo sapiens, AN3-CA, read-out: Cell growth GI50 (nM)
Description: Data are shown as mean (±SD) from 3 separate experiments tested in triplicate.

[15] = test system: refractory AML with a FLT3-ITD mutation; test: Preliminary clinical trial result in AML; type: in vivo, human; conditions: 45 mg daily p.o., one patient
[16] = test system: Phospho-Erk1/2 in KatoIII cells; test: Western immunoblotting; conditions: Homo sapiens, KATO III, read-out: Phospho-Erk1/2 IC50 (nM)
Description: as §3

[17] = test system: Ba/F3 cells expressing native BCR-ABL; remark: listed apart in the source
Description: as §2

[18] = test system: Phospho-FRS2a in RL95 cells; test: Western immunoblotting; conditions: read-out: Phospho-FRS2a IC50 (nM)
Description: as §3, §5

[19] = test system: FGFR2-mutant AN3CA tumor xenograft; test: AN3CA xenograft, compound 1 and ridaforolimus (Example 9); type: in vivo, nude mice
Description: as §6

KY01 CML leukemia cells = test: Cellular proliferation assay
ERBB4 = ERBB4 (Homo sapiens, UniProt Q15303); test: Kinase assay (RBC)
[20] = test system: Phospho-FRS2a in Hec1B cells; test: Western immunoblotting; conditions: Homo sapiens, HEC-1B, read-out: Phospho-FRS2a IC50 (nM)
Description: as §3, §5

[21] = test system: AN3CA endometrial cancer cell line; test: Combination cell growth assay (Chou and Talalay); type: cell-based; conditions: Homo sapiens, AN3-CA, read-out: 1×EC50 concentration
[22] = test system: Phospho-Erk1/2 in SNU16 cells; test: Western immunoblotting; conditions: Homo sapiens, SNU-16, read-out: Phospho-Erk1/2 IC50 (nM)
Description: as §3

[23] = T315I patients evaluable for CyR

Sequence of ERBB4 (Q15303 718-985 limits assumed): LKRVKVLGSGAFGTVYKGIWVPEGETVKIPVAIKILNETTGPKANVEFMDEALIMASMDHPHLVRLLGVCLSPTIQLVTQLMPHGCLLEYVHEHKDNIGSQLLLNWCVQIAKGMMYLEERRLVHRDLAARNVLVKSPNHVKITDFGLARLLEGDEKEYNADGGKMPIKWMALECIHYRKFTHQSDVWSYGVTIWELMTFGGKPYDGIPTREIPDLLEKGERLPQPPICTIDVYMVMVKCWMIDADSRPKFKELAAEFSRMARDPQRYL
Sequence of PI3Kα (P42336 765-1051 limits assumed): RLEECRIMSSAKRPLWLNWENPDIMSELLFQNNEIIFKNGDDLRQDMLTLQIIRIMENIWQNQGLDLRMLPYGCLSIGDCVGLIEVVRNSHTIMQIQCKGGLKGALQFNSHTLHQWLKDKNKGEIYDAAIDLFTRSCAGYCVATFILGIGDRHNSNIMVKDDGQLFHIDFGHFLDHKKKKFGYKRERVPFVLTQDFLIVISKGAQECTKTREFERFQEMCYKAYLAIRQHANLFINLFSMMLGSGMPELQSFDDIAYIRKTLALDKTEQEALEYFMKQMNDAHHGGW
Sequence of PI3Kα (P27986 whole entry partner): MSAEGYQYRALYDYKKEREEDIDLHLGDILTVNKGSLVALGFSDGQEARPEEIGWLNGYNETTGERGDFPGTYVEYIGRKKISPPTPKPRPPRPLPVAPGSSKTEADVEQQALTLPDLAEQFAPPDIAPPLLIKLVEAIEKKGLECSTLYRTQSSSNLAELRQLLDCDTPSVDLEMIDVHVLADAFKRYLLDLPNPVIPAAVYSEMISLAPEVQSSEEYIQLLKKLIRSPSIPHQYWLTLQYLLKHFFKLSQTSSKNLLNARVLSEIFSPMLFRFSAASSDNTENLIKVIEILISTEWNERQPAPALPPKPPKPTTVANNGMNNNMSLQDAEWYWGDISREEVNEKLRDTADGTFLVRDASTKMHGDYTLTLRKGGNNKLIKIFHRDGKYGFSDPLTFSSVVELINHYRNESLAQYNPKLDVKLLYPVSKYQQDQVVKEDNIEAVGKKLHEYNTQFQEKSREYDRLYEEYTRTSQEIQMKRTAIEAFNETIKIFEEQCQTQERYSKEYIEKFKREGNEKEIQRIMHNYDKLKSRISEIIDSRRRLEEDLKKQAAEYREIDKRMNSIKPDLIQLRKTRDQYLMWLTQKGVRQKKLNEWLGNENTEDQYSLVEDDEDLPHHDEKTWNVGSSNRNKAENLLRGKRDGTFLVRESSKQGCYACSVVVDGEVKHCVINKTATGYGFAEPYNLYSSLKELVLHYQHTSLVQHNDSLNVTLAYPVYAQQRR

## Cc1ccc(C(=O)Nc2ccc(CN3CCN(C)CC3)c(C(F)(F)F)c2)cc1C#Cc1cnc2cccnn12 [Compound 1, 3-(imidazo[1,2-b]pyridazin-3-ylethynyl)-4-methyl-N-(4-((4-methylpiperazin-1-yl)-methyl)-3-(trifluoromethyl)phenyl)benzamide]
[1]; 20 nM, 20 clones sequenced, T315I only
  Occurrences (n), by specific compound mutation (with T315I): 20
[1]; 20 nM, T315I only
  Frequency among clones (%): 100.0%
[1]; 40 nM
  Wells with outgrowth: 192
[1]; 320 nM, E255
  Frequency by residue (%): 100.0%
  Occurrences (n), by residue: 1
[1]; 640 nM
  Wells with outgrowth: 0
Parental Ba/F3 cells
  IC50: 1710 nM
[2]
  IC50: 4 nM
[3]
  IC50: > 1000 nM
[4]
  IC50: 17 nM
[5]
  IC50: 8 nM
[6]; [23]
  AP, BP, or ALL patients achieving CCyR: 1
  AP, BP, or ALL patients achieving MCyR: 3
  CP patients achieving CCyR: 5
  CP patients achieving MCyR: 6
[6]; T315I subset
  MHR in AP, BP, or ALL patients: 3 of 8
[6]; human, in vivo
  MMRs in patients with T315I at baseline: 4
[6]; in 32 CP patients
  MMRs: 8
[6]; overall
  MCyR: 12
  complete cytogenetic responses (CCyR): 8
  major hematologic response (MHR) in AP, BP, or ALL patients: 5 of 12
[6]
  complete hematologic response (CHR) in CP patients: 85%
[6]; incl. new and baseline CHR
  complete hematologic response (CHR) in CP patients: 22 of 22
[7]
  IC50: 5.5 nM
[8]
  inhibition of AN3CA tumor growth: 62%
[9]
  GI50: 275 nM
[10]
  IC50: > 1000 nM
PKC8
  IC50: > 1000 nM
PI3Kα
  IC50: > 1000 nM
[11]
  accumulation after repeated dosing: 1.5-3 fold
RS4;11 cells (wt)
  IC50: > 100 nM
[12]
  frequency of mutated subclones: 33.1%
[13]
  IC50: 80 nM
[14]
  GI50: 30 nM
[15]
  clinical response: complete response
[16]
  IC50: 8 nM
[17]
  differential in sensitivity between cells expressing native BCR-ABL and parental cells: greater than 3000 fold
[18]
  IC50: > 1000 nM
[19]; Compound 1 10 mg/kg alone
  TGI (%): 26%
[19]; Compound 1 30 mg/kg alone
  TGI (%): 81%
KY01 CML leukemia cells
  IC50: 0.4 nM
ERBB4
  IC50: 176 nM
[20]
  IC50: > 1000 nM
[21]
  EC50: 30 nM
[22]
  IC50: 8 nM
